Here are results for 3 molecules from patent US20040248864A1, “Use of anthroquinones in the treatment of kidney disease” (priority 2001, published 2004).

Where two headings read alike, the source gives them in different places.

Data set [1] relates to nephrotoxic nephritis. Put plainly: rat model of nephritis (nephrotoxic nephritis): proteinuria and renal histology (crescents). Conditions: for proteinuria compared to the control: diacerein 50, 100 and oral once a day, prednisolone 2 mg/kg. Format: in vivo. As to the method: Experiments were conducted, using a rat model of nephritis (nephrotoxic nephritis) (Karkar et al, Kidney International, 1997). This is an aggressive immune driven model which parallels clinical conditions such as lupus nephritis, glomerulonephritis, IgA nephropathy and other immune-mediated nephritic diseases.
[…] Development of nephrotoxic nephritis was measured by the degree of proteinuria (in the control group) at days 6 and 10, post-disease initiation and by renal histology at day 10, quantified by the number of damaged nephrons (crescents) per histology section. These end-points were used to determine the success of the diacerein treatment. Alongside diacerein treatment, a negative control (drug vehicle only) and positive control (2 mg/kg prednisolone) were tested.

The nature of data set [2]: PK profile: plasma concentration of rhein after oral dosing with diacerein. In kind it is in vivo. Conditions: rat. The method, then:
FIG. 1 is a PK profile, i.e. a graph of plasma concentration of rhein (mg/ml) against time (min) post-dosing with 100, 200 and 300 mg/kg diacerein.
Consequently, the dosing for the nephrotoxic nephritis experiment was based around this dose range (see below).

The conditions of data set [3]: humans; cited from earlier work.
In data set [4] the test system is inducible nitric oxide synthase. The conditions noted are these: osteochondrocytes, IL-1b stimulated; Pelletier 1998; cited from earlier work.
For data set [5], the system named is IL-1. The conditions noted are these: Yaron et al 1999; Moldovan 2000; cited from earlier work.
For data set [6], the system named is TIMP-1. The conditions noted are these: Tamura et al 2001; cited from earlier work.
For data set [7], the system named is MMPs 1, 3, 9 & 13 and pro-MMPs. The conditions noted are these: Tamura et al 2001; cited from earlier work.
[8] abbreviates: day 6 post-disease initiation, significant at highest dose (p<0.01).
Where [9] appears, read: day 10 post-disease initiation, significant at top dose (p<0.01).

With `CC(=O)Oc1cccc2c1C(=O)c1c(OC(C)=O)cc(C(=O)O)cc1C2=O` [diacerein], the “proteinuria compared to the control” value in data set [1] (setting [8]) was “decreased compared to the control”; in data set [1] (setting [9]), “dose-dependant decrease in proteinuria”. Moreover, the “nephron damage (crescents per histology section)” value in data set [1] (day 10 histology, 50 mg/kg diacerein) is on record as “decrease in nephron damage”; in data set [1] (day 10 histology, 100 mg/kg diacerein, significant (p<0.05)) it was “decrease in nephron damage”; in data set [1] (day 10 histology, 200 mg/kg diacerein), “slight increase again”. Besides, the “effect on both proteinuria and renal damage associated with nephrotoxic nephritis” value in data set [1] (overall summary of the study) is listed as “significant effect”. In addition, the “oral dose required to obtain therapeutic plasma concentrations of drug” value in data set [2] is 100 to 200 mg/kg; in data set [3], 0.8 mg/kg. In data set [4], the “production of inducible nitric oxide synthase and production of nitric oxide” value is reported as “reduce the production”. Moreover, in data set [5], the “production of the pro-inflammatory cytokine IL-1” value was “reduce the production”.

Regarding `C[C@]12C=CC(=O)C=C1CC[C@@H]1[C@@H]2[C@@H](O)C[C@@]2(C)[C@H]1CC[C@]2(O)C(=O)CO` [prednisolone], the “proteinuria compared to the control” value is reported as “markedly reduced proteinuria” in data set [1] (setting [8]) and “unexpected rebound above the control proteinuria levels” in data set [1] (setting [9]). In addition, the “effect on renal damage (histology)” value in data set [1] (day 10 histology, 2 mg/kg prednisolone) is “negligible”.

`O=C(O)c1cc(O)c2c(c1)C(=O)c1cccc(O)c1C2=O` [rhein]: in data set [6], the “production of tissue inhibitor of matrix MMP-1, TIMP-1” value is reported as “increases the production”. For the same molecule, the “production of inducible nitric oxide synthase and production of nitric oxide” value in data set [4] was “reduce the production”. In data set [7], the “production of key matrix metalloproteinases MMPs 1, 3, 9 & 13 and pro-MMPs” value is “down-regulates the production”. The “production of the pro-inflammatory cytokine IL-1” value in data set [5] is “reduce the production”.
